# Experimental data taken from paper PMC11642016 (International Journal of Molecular Sciences, 2024).
# Several values for one entry are separate records, joined by “and”; a condition that tells them apart may be missing. Equal values may be shown once. Read-outs that look alike come from different tables or passages of the source.
# Tests used:
# [1] = in vitro; conditions: human, fibroblast viability in the tested concentration range, dose–response range 26–0.7 µM
# [2] = in vitro; conditions: human, HEK293T WT Cell viability (% of controll), dose–response, individual replicates
# Experimental: (§1) Primary fibroblast cultures were prepared from human skin biopsies and maintained in DMEM supplemented with 10% FBS, 1% penicillin-streptomycin, and 1% MEM Non-Essential Amino Acids Solution (Thermo Fisher Scientific). […] All cell lines were cultured in a humidified atmosphere at 37 °C and 5% CO2, passaged twice a week, and the experiments were performed on cells between passage 5 and 15. The cell lines were routinely screened for the absence of mycoplasma infection (DAPI staining).
# (§2) The effects of the synthesized compounds on cell viability were measured using the CellTiter-Glo® luminescent cell viability assay (Promega, Madison, WI, USA), according to the manufacturer’s instructions. Briefly, cells were seeded onto a flat-bottomed, white 96-well plate (BRANDplates, cat. no.: 781965)), with the following densities: PANC-1: 750 cells/well, Fadu: 2000 cells/well, primary fibroblasts: 2000 cells/well, HEK293T WT: 1000 cells/well, HEK293T CLPP^−/−: 2500 cells/well. After seeding, cells were incubated for a further 48 h before treatment. Cells were treated with the compounds for 72 h. Three concentrations (25.0 µM; 8.3 µM; 2.8 µM) were applied during the initial cell viability screening, while for the determination of dose–response curves, 1.5-fold serially diluted compound concentrations were applied (range: 26 µM–0.7 µM). After treatment, the luminescence signal was recorded using a microplate reader (BioTek Synergy 2 Multi-Mode Reader, BioTek, Winooski, VT, USA).
# (§3) Data analysis was performed using GraphPad Prism 9.5.0 software (GraphPad Software, San Diego, CA, USA). […] The dose–response curves were generated by four-parameter nonlinear regression, and the IC50 values were determined as the means ± SEM of the best-fit values of 3 independent measurements. The R^2 values were consistently above 0.93, indicating a strong fit of the model to the experimental data (Supplementary S.89). […] Dunnett’s post hoc test was applied to adjust for multiple comparisons, minimizing the likelihood of false positive results. Assumptions for ANOVA, including normality (assessed via QQ plots) and homogeneity of variance (tested using the Brown–Forsythe test), were verified. The following significance levels were applied: * p < 0.05, ** p < 0.01, *** p < 0.001, **** p < 0.0001. […] The tumor selectivity of the compounds was quantitatively characterized by the selectivity index (SI). This parameter was calculated as the ratio of the average best-fit IC50 value for primary fibroblasts and the best-fit IC50 value for the corresponding tumor cells (PANC-1 or Fadu).
# [3] = test system: HEK293T WT cells; assay: CellTiter-Glo cell viability assay, HEK293T WT; conditions: for HEK293T WT Cell viability (% of controll): dose–response, individual replicates
# Experimental: as §1, §2, §3
# [4] = test system: Fadu cells; assay: CellTiter-Glo luminescent cell viability assay, Fadu; conditions: for viability at 2.8 µM: read-out: Cell Viability (% of Control) 2.8 µM, Fadu; for viability at 2.8 µM / viability at 8.3 µM / viability at 25 µM: mean ± SD, n = 2; for viability at 8.3 µM: read-out: Cell Viability (% of Control) 8.3 µM, Fadu; for viability at 25 µM: read-out: Cell Viability (% of Control) 25 µM, Fadu
# [5] = test system: PANC-1 cells; assay: CellTiter-Glo luminescent cell viability assay, PANC-1; conditions: for viability at 2.8 µM: read-out: Cell Viability (% of Control) 2.8 µM, PANC-1; for viability at 2.8 µM / viability at 8.3 µM / viability at 25 µM: mean ± SD, n = 2; for viability at 8.3 µM: read-out: Cell Viability (% of Control) 8.3 µM, PANC-1; for viability at 25 µM: read-out: Cell Viability (% of Control) 25 µM, PANC-1
# [6] = 0.7 μM, 72 h, dose–response, individual replicates
# [7] = 1 μM, 72 h, dose–response, individual replicates
# [8] = 1.5 μM, 72 h, dose–response, individual replicates
# [9] = 2.3 μM, 72 h, dose–response, individual replicates
# [10] = 3.4 μM, 72 h, dose–response, individual replicates
# [11] = 5.1 μM, 72 h, dose–response, individual replicates
# [12] = 7.7 μM, 72 h, dose–response, individual replicates
# [13] = 17.3 μM, 72 h, dose–response, individual replicates
# [14] = 26 μM, 72 h, dose–response, individual replicates
# [15] = Homo sapiens, FaDu, 72 h, 72 h, first-set screening
# [16] = Homo sapiens, FaDu, 72 h, 72 h, second-set screening
# [17] = Homo sapiens, PANC-1, 72 h, 72 h, first-set screening
# [18] = Homo sapiens, PANC-1, 72 h, 72 h, second-set screening
smiles,measurement,setting,value
"Cc1ccccc1CN1C(=O)C2=C(CCN(Cc3ccccc3)C2)N2CCN=C12 [ONC201, reference compound]",viability at 72 h,[1],> 50%
same,"viability at 72 h, 0.6 µM",[2]; 0.6 μM,60%
same,"viability at 72 h, 1 µM",[2]; 1.0 μM,30%
same,"viability at 72 h, 1.6 µM",[2]; 1.6 μM,28%
same,"viability at 72 h, 2.5 µM",[2]; 2.5 μM,21%
same,"viability at 72 h, 4 µM",[2]; 4.0 μM,19%
same,"viability at 72 h, 6.4 µM",[2]; 6.4 μM,18%
same,"viability at 72 h, 16.25 µM",[2]; 16.25 μM,15%
same,"viability at 72 h, 26 µM",[2]; 26 μM,15%
same,HEK293T WT Cell viability (% of controll),"[3]; 0.4 μM, 72 h",105 % of controll and 96 % of controll and 95 % of controll
same,HEK293T WT Cell viability (% of controll),"[3]; 0.6 μM, 72 h",70 % of controll and 65 % of controll and 68 % of controll
same,HEK293T WT Cell viability (% of controll),"[3]; 1.0 μM, 72 h",32 % of controll and 31 % of controll
same,HEK293T WT Cell viability (% of controll),"[3]; 1.6 μM, 72 h",25 % of controll and 29 % of controll
same,HEK293T WT Cell viability (% of controll),"[3]; 2.5 μM, 72 h",19 % of controll and 22 % of controll and 23 % of controll
same,HEK293T WT Cell viability (% of controll),"[3]; 4.0 μM, 72 h",19 % of controll and 22 % of controll and 20 % of controll
same,HEK293T WT Cell viability (% of controll),"[3]; 6.4 μM, 72 h",19 % of controll and 22 % of controll and 20 % of controll
same,HEK293T WT Cell viability (% of controll),"[3]; 16.25 μM, 72 h",18 % of controll and 19 % of controll
same,HEK293T WT Cell viability (% of controll),"[3]; 26 μM, 72 h",15 % of controll and 16 % of controll and 18 % of controll
same,IC50,"[3]; Homo sapiens, HEK-293T, 72 h, read-out: IC50 (µM) HEK293T WT, 72 h treatment, ± SEM, best-fit values, n = 4",0.6 ± 0.03 µM
same,IC50,"[3]; Homo sapiens, HEK-293T, read-out: HEK293T WT IC50 values, Mean, mean of independently fitted replicate IC50 values (Supplement S.6)",0.56 µM
same,IC50,"[3]; Homo sapiens, HEK-293T, read-out: HEK293T WT IC50 values, individual replicates n1-n4, IC50 independently determined for each replicate measurement (Supplement S.6)",0.394 µM
same,IC50,"[3]; read-out: HEK293T WT IC50 values, individual replicates n1-n4, IC50 independently determined for each replicate measurement (Supplement S.6)",0.626 µM and 0.558 µM and 0.643 µM
same,Fadu Cell viability (% of controll),[4]; [6],93 % of controll
same,Fadu Cell viability (% of controll),[4]; [7],86 % of controll and 77 % of controll
same,Fadu Cell viability (% of controll),[4]; [8],59 % of controll and 51 % of controll
same,Fadu Cell viability (% of controll),[4]; [9],55 % of controll and 30 % of controll
same,Fadu Cell viability (% of controll),[4]; [10],26 % of controll
same,Fadu Cell viability (% of controll),[4]; [11],26 % of controll
same,Fadu Cell viability (% of controll),[4]; [12],28 % of controll and 27 % of controll
same,Fadu Cell viability (% of controll),[4]; [13],23 % of controll and 24 % of controll
same,Fadu Cell viability (% of controll),[4]; [14],22 % of controll and 24 % of controll
same,viability at 2.8 µM,[4]; [15],31 ± 1%
same,viability at 2.8 µM,[4]; [16],38 ± 5%
same,viability at 8.3 µM,[4]; [15],29 ± 1%
same,viability at 8.3 µM,[4]; [16],31 ± 2%
same,viability at 25 µM,[4]; [15],27 ± 1%
same,viability at 25 µM,[4]; [16],25 ± 3%
same,viability at 0.7 µM,"[4]; Homo sapiens, FaDu, 72 h, read-out: Fadu Cell viability (% of controll), 0.7 μM, 72 h, dose–response, individual replicates",94%
same,viability at 1 µM,"[4]; Homo sapiens, FaDu, 72 h, read-out: Fadu Cell viability (% of controll), 1 μM, 72 h, dose–response, individual replicates",85%
same,viability at 1.5 µM,"[4]; Homo sapiens, FaDu, 72 h, read-out: Fadu Cell viability (% of controll), 1.5 μM, 72 h, dose–response, individual replicates",66%
same,viability at 3.4 µM,"[4]; Homo sapiens, FaDu, 72 h, read-out: Fadu Cell viability (% of controll), 3.4 μM, 72 h, dose–response, individual replicates",40%
same,viability at 5.1 µM,"[4]; Homo sapiens, FaDu, 72 h, read-out: Fadu Cell viability (% of controll), 5.1 μM, 72 h, dose–response, individual replicates",39%
same,viability at 7.7 µM,"[4]; Homo sapiens, FaDu, 72 h, read-out: Fadu Cell viability (% of controll), 7.7 μM, 72 h, dose–response, individual replicates",38%
same,viability at 17.3 µM,"[4]; Homo sapiens, FaDu, 72 h, read-out: Fadu Cell viability (% of controll), 17.3 μM, 72 h, dose–response, individual replicates",33%
same,viability at 26 µM,"[4]; Homo sapiens, FaDu, 72 h, read-out: Fadu Cell viability (% of controll), 26 μM, 72 h, dose–response, individual replicates",31%
same,IC50,"[4]; Homo sapiens, FaDu, 72 h, read-out: IC50 Value ± SEM Fadu, 72 h treatment, best-fit values, n = 3",1300 ± 150 nM
same,IC50,"[4]; Homo sapiens, FaDu, read-out: Fadu IC50 values, Mean, mean of independently fitted replicate IC50 values (Supplement S.6)",1340 nM
same,IC50,"[4]; Homo sapiens, FaDu, read-out: Fadu IC50 values, individual replicates n1-n3, IC50 independently determined for each replicate measurement (Supplement S.6)",1350 nM
same,IC50,"[4]; read-out: Fadu IC50 values, individual replicates n1-n3, IC50 independently determined for each replicate measurement (Supplement S.6)",1410 nM and 1260 nM
same,PANC-1 Cell viability (% of controll),[5]; [6],92 % of controll and 97 % of controll
same,PANC-1 Cell viability (% of controll),[5]; [7],102 % of controll and 101 % of controll
same,PANC-1 Cell viability (% of controll),[5]; [8],86 % of controll and 101 % of controll
same,PANC-1 Cell viability (% of controll),[5]; [9],78 % of controll and 84 % of controll
same,PANC-1 Cell viability (% of controll),[5]; [10],57 % of controll and 60 % of controll
same,PANC-1 Cell viability (% of controll),[5]; [11],51 % of controll and 54 % of controll
same,PANC-1 Cell viability (% of controll),[5]; [12],43 % of controll and 48 % of controll
same,PANC-1 Cell viability (% of controll),[5]; [13],37 % of controll and 35 % of controll
same,PANC-1 Cell viability (% of controll),[5]; [14],32 % of controll and 29 % of controll
same,viability at 2.8 µM,[5]; [17],69 ± 1%
same,viability at 2.8 µM,[5]; [18],59 ± 9%
same,viability at 8.3 µM,[5]; [17],58 ± 1%
same,viability at 8.3 µM,[5]; [18],35 ± 2%
same,viability at 25 µM,[5]; [17],53 ± 2%
same,viability at 25 µM,[5]; [18],22 ± 2%
same,IC50,"[5]; Homo sapiens, PANC-1, 72 h, read-out: IC50 Value ± SEM PANC-1, 72 h treatment, best-fit values, n = 3",3100 ± 260 nM
same,viability at 0.7 µM,"[5]; Homo sapiens, PANC-1, 72 h, read-out: PANC-1 Cell viability (% of controll), 0.7 μM, 72 h, dose–response, individual replicates",90%
same,viability at 1 µM,"[5]; Homo sapiens, PANC-1, 72 h, read-out: PANC-1 Cell viability (% of controll), 1 μM, 72 h, dose–response, individual replicates",94%
same,viability at 1.5 µM,"[5]; Homo sapiens, PANC-1, 72 h, read-out: PANC-1 Cell viability (% of controll), 1.5 μM, 72 h, dose–response, individual replicates",85%
same,viability at 2.3 µM,"[5]; Homo sapiens, PANC-1, 72 h, read-out: PANC-1 Cell viability (% of controll), 2.3 μM, 72 h, dose–response, individual replicates",72%
same,viability at 3.4 µM,"[5]; Homo sapiens, PANC-1, 72 h, read-out: PANC-1 Cell viability (% of controll), 3.4 μM, 72 h, dose–response, individual replicates",64%
same,viability at 5.1 µM,"[5]; Homo sapiens, PANC-1, 72 h, read-out: PANC-1 Cell viability (% of controll), 5.1 μM, 72 h, dose–response, individual replicates",49%
same,viability at 7.7 µM,"[5]; Homo sapiens, PANC-1, 72 h, read-out: PANC-1 Cell viability (% of controll), 7.7 μM, 72 h, dose–response, individual replicates",46%
same,viability at 17.3 µM,"[5]; Homo sapiens, PANC-1, 72 h, read-out: PANC-1 Cell viability (% of controll), 17.3 μM, 72 h, dose–response, individual replicates",34%
same,viability at 26 µM,"[5]; Homo sapiens, PANC-1, 72 h, read-out: PANC-1 Cell viability (% of controll), 26 μM, 72 h, dose–response, individual replicates",33%
same,IC50,"[5]; Homo sapiens, PANC-1, read-out: PANC-1 IC50 values, Mean, mean of independently fitted replicate IC50 values (Supplement S.6)",3050 nM
same,IC50,"[5]; Homo sapiens, PANC-1, read-out: PANC-1 IC50 values, individual replicates n1-n3, IC50 independently determined for each replicate measurement (Supplement S.6)",3220 nM
same,IC50,"[5]; read-out: PANC-1 IC50 values, individual replicates n1-n3, IC50 independently determined for each replicate measurement (Supplement S.6)",3140 nM and 2780 nM
